# US20100278730A1, “Non-Invasive Molecular Imaging of Cellular Histone Deacetylase Substrate Using Magnetic Resonance Spectroscopy (MRS) or Positron Emission Tomography (PET)” (priority 2007, published 2010)
# Assays:
# [1] = system: PC3 human prostate cancer cells tumor; test: In vivo detection of HDAC inhibition by MRS in PC3 tumors (Example 3); design: species or system mice
# Procedure: Methods. 5×10^6 PC3 human prostate cancer cells suspended in matrigel were injected subcutaneously in male CD-1 nude mice (n=5). When an average tumor volume of 0.2 cm^3 was reached, mice were separated into 2 groups. The treated group (n=3) was treated daily with 50 mg/kg SAHA intraperitoneally, while the control mice were treated with carrier DMSO. MRS was performed on a 4.7T Biospec (Bruker Biospin, Billerica, Mass.) prior to treatment (day 0) and on days 2 and 7 of treatment, using a 1.5 cm (inner diameter) dual-tuned ^1H/^19F surface coil. […] BLT levels determined by ^19F MRS were normalized to the external reference aaa-trifluorotoluene (TFT) (Sigma-Aldrich Chemical Co., St. Louis, Mo.) in a micro-cell spherical bulb placed at a permanent location relative to the coil and expressed as % of maximum tumor BLT levels in each study. For each mouse and also for average values, a paired t-test of BLT evolution was performed for days 2 and 7 with respect to day 0. ^1H MRS data was analyzed by normalizing the tCho signal either to the total ^1H signal or to the internal water signal.
# [2] = Toxicity study of Boc-lysine trifluoroacetic acid (BLT) in nude mice; type: in vivo; conditions: 100 mg/kg BLT i.p. in DMSO on days 1, 8, 15; male nude mice; vs DMSO-treated controls
# Procedure: Rationale: BLT must have no detectable toxic effects at levels that result in an MRS-visible signal in vivo if it were to be used as an imaging agent. To verify this, we monitored the toxicity of 100 mg/kg BLT (˜3 mM plasma concentration), which, based on previously published studies of fluorinated drugs, was expected to result in an MRS-detectable signal. (Hamstra, et al., Mol Ther, 10: 916-928, 2004; McSheehy, et al., Cancer Res, 60: 2122-2127, 2000; Gade, et al., Magn Reson Med, 52: 169-173, 2004; Chung, et al., Clin Cancer Res, 10:3863-3870, 2004; Aboagye, et al., Cancer Res, 58: 4075-4078, 1998).
# Methods and Results: Four male nude mice were injected intraperitoneally with 100 mg/kg BLT in 40 μl of DMSO and 4 mice were injected with 40 μl of DMSO alone on days 1, 8, and 15 of the study. The mice were monitored daily for changes in weight, skin and hydration status, activity, behavior, feeding, and neurological status. On day 16, blood samples were collected, and blood counts and hepatic and kidney functions assessed (bilirubin, total protein, aspartate aminotransferase, alanine aminotransferase, creatinine, and blood urea nitrogen). At the end of the study, following animal euthanasia, mice were dissected and tissue samples obtained for histology (hematoxylin-eosin staining).
# [3] = system: PC-3 tumor; test: 19F/31P/1H MRS of PC-3 tumors after BLT injection, with or without SAHA treatment (Example 2); type: in vivo, mice
# Procedure: Methods and Results: PC-3 cells (10^6) were injected into the flank of male nude mice. MR experiments were first performed when tumors were ˜1 cm in diameter. Mice were anesthetized using isoflurane. A 10-mm home-built ^19F surface coil (milled from a polymer-based flexible substrate using a ProtoMat C100/HF (LPKF Laser & Electronics, Wilsonville, Oreg.)) was placed over the tumor, and the animal placed at the center of the magnet. Varacator diodes in the impedance matching circuitry provided a means to match and tune the coil from the console. Following localization, a T2-weighted image of the tumor was recorded using the RARE sequence (TE=45 ms, TR=2 s) via the ^19F surface coil tuned to ^1H. Localized shimming was performed using FASTMAP and achieved ˜20 Hz line width for the water peak. A localized ^1H spectrum was then acquired using a single-voxel PRESS sequence (TE=21 ms, TR=3 s, 96 scans) with VAPOR water suppression. Following retuning of the coil to ^19F, a ‘baseline’ ^19F spectrum was then acquired using a one-pulse sequence (45° flip angle, 300 scans, TR=1 s). A microsphere filled with 20 mM trifluorotoluene (−63.7 ppm) served as an external reference. 100 mg/kg BLT (in 40 μl DMSO) was then injected i.p. and sequential 5-minute ^19F spectra acquired over 90 minutes. The ^19F surface coil was then replaced with a ^31P coil and a spectrum acquired from the tumor region using a one-pulse sequence (30° flip angle, 900 scans, TR=2 s). Adequate SNR was achieved within 30 min.
# Following 1 week of treatment, the MR study was repeated.
# [4] = system: MB435 tumor xenografts; test: PET of [18F]-FAHA in MB435 tumor xenograft-bearing nude rats (second Example 4); type: in vivo, rat; conditions: blocking study, SAHA 50 mg/kg i.p. 1 hour prior; p<0.01 unpaired t test
# Procedure: Methods: [^18F]-FAHA was synthesized with high specific activity according to a method developed at M. D. Anderson Cancer Center. Human breast cancer cells, cell line MB435, grown as described in Example 3, were used to grow tumor xenografts in nude rats. Ten million cancer cells were injected subcutaneously in the neck area of six nude rats. When tumors were 1 cm in diameter, animals were anesthetized, injected with [^18F]-FAHA (37 MBq) and PET imaging was performed (dynamic) up to 60 min post-injection. Two days after the initial imaging, another PET imaging with [^18F]-FAHA was performed using a […] (SAHA). The animals were given SAHA (50 mg/kg) intraperitoneally 1 hour prior to injection of the radiotracer.
# [5] = system: HDAC activity in rat brain; test: PET imaging of HDAC activity in rat brain using [18F]-FAHA (Example 6); type: in vivo; conditions: SAHA 50 mg/kg i.p. 1 hour prior; p<0.01 unpaired t test
# Procedure: Methods: [^18F]-FAHA was synthesized according to the methods developed in our laboratory in high specific activity. Imaging studies with [^18F]-FAHA were conducted in five rats using a PET scanner under isoflurane inhalation anesthesia. The animals were injected intravenously with 37 MBq of [^18F]-FAHA and dynamic scanning PET (0-60 min) was performed. During the imaging session, the rats were anesthetized with 1-1.5 vol % isoflurane/oxygen inhalation and continuously heated with a heating lamp. Two days after the initial study, another PET imaging was performed with [^18F]-FAHA using an […] (SAHA). Each animal was given SAHA (50 mg/kg), intraperitoneally 1 hour prior to injection of the [^18F]-FAHA.
# In Table 6, “baseline” refers to brain uptake of FAHA without blocking by SAHA.
Structure (SMILES),"19F MRS of BLT as indicator of HDAC inhibition ([1]; PC3 tumors, SAHA 50 mg/kg daily i.p., days 0, 2, 7, 100 mg/kg BLT i.p.)","toxicity (weight, behavior, blood counts, hepatic and kidney functions, histology) [2]","decrease in tumor BLT levels ([3]; first 50 min following BLT injection i.p., PC-3 tumor, 19F MRS) [%]",phosphomonoesters and choline-containing metabolites (31P MRS and 1H MRS) ([1]; PC3 tumors following SAHA treatment 50 mg/kg daily i.p.),effect on uptake of [18F]-FAHA inside tumor [4],effect on uptake of [18F]-FAHA inside brain [5],"tumor growth ([3]; 50 mg/kg SAHA in DMSO daily i.p., PC-3 tumor, preliminary data)","BLT levels in the tumor in vivo (19F MRS, normalized to tumor size) ([3]; 1 week of 50 mg/kg SAHA daily i.p. vs DMSO control and pre-treatment)"
"CC(C)(C)OC(=O)N[C@@H](CCCCN)C(=O)O.O=C(O)C(F)(F)F [BLT, Boc-lysine trifluoroacetic acid]",detects HDAC inhibition prior to effect on tumor size,no indication of significant toxicity was observed,~25,–,–,–,–,–
"O=C(CCCCCCC(=O)Nc1ccccc1)NO [SAHA, suberoylanilide hydroxamic acid, reference compound]",–,–,–,transient increase,significantly inhibited,significantly inhibited,inhibition of tumor growth,higher
